Measured values: patent US10485895B2, “Self-assembling peptide scaffolds” (CELLULAR AND MOLECULAR RESEARCH CENTER, IRAN UNIVERSITY OF …, priority 2016, dated 2019)

System: Mg-63 cells
Test: LDH cytotoxicity assay (LDH release as marker of dead cells)
Type: cell-based
Conditions: control group = 100%, aloe vera extract 5% (v/v), SDKP about 75 micrograms per milliliter, Fingolimod hydrochloride about 10 nanogram per milliliter, FIG. 3
Procedure: In some cases, lactate dehydrogenase (LDH) assays can be performed by assessing or measuring the LDH released into the media as a marker of dead cells. In this example, biocompatibility and cytotoxicity of the injectable scaffold of the present disclosure as a whole and its components were measured by an LDH cytotoxicity assay as follows.
Mg-63 cell line was the source of osteoblast cells in the following assays. Six test groups and one control group of Mg-63 cells were prepared for investigating the cytotoxicity effects of the present injectable scaffold and its components. FIG. 3 illustrates the data of LDH release from Mg-63 cells of six test groups and one control group. […]

For `C[C@H](NC(=O)[C@H](CC(=O)O)NC(=O)[C@H](C)NC(=O)[C@H](CCCNC(=N)N)NC(=O)[C@H](C)NC(=O)[C@H](CC(=O)O)NC(=O)[C@H](C)NC(=O)[C@H](CCCNC(=N)N)NC(=O)[C@H](C)NC(=O)[C@H](CC(=O)O)NC(=O)[C@H](C)NC(=O)[C@H](CCCNC(=N)N)NC(=O)[C@H](C)NC(=O)[C@H](CC(=O)O)NC(=O)[C@H](C)NC(=O)[C@@H](N)CCCNC(=N)N)C(=O)O` [R], which LDH release is on record?
The LDH release was “about 62.35%”.
